{"source": "ChEMBL document CHEMBL1201862", "about": "“PubChem BioAssay data set” (2004)", "key": {"[1]": {"target": "T1, E3 ubiquitin-protein ligase XIAP (Homo sapiens, UniProt P98170)", "T1 sequence (P98170 whole entry)": "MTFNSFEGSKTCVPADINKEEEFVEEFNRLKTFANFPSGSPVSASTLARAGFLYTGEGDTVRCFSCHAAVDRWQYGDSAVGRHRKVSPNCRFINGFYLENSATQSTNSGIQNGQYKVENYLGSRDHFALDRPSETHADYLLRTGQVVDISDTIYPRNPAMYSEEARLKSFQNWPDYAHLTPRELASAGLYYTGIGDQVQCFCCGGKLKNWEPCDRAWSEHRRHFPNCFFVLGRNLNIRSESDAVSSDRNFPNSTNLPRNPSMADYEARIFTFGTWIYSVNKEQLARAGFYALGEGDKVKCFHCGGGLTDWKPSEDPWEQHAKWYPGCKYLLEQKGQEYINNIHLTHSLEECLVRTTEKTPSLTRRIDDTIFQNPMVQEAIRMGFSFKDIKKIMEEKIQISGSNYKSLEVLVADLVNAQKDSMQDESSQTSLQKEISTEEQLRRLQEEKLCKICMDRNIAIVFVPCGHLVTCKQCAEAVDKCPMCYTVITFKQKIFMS", "experiment": "Counter Screen using XIAP-Bir3 for Chemical Antagonists of Bir1/2 domains of IAP-family anti-apoptotic proteins. [Related pubchem assays (depositor defined):AID1018, AID1449, AID1514, AID1638, AID1749, AID1750, AID488957, AID488963]"}, "[2]": {"target": "T1, E3 ubiquitin-protein ligase XIAP", "experiment": "XIAP antagonists, biochemical, IAP family, fluorescence polarization (AID 1018)", "assay_type": "functional"}, "Nonstructural protein 1": {"target": "Nonstructural protein 1 (Influenza A virus, UniProt Q194T2)", "sequence (Q194T2 whole entry)": "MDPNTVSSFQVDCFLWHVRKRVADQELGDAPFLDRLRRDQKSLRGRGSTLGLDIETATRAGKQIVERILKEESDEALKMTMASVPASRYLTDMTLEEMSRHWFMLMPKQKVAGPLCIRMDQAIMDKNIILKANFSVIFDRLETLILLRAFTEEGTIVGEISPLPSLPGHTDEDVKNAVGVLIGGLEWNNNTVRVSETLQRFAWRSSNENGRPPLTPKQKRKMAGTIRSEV", "assay_type": "functional, Influenza A virus (A/California/07/2009(H1N1))"}, "H9c2": {"tested_on": "H9c2", "experiment": "cells", "assay_type": "functional, cell-based", "details": "Rattus norvegicus, H9c2, Myocardium"}, "Cytochrome P450 2C19": {"target": "Cytochrome P450 2C19 (Homo sapiens, UniProt P33261)", "sequence (P33261 whole entry)": "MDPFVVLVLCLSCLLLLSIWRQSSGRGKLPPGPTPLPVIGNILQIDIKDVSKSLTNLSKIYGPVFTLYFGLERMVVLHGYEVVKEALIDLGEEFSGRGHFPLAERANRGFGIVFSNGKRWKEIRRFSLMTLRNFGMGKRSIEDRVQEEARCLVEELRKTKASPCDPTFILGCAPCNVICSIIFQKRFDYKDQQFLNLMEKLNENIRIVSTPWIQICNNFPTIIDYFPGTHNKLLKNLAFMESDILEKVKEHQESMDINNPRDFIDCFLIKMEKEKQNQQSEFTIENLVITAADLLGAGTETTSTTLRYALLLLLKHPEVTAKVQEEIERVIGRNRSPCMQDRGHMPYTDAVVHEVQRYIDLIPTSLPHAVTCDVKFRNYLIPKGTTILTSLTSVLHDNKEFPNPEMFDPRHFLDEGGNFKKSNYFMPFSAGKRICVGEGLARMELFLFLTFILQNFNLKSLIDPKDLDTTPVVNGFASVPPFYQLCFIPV", "experiment": "Cytochrome panel assay with activity outcomes. Panel member name: p450-cyp2c19 Compounds with AC50 equal or less than 10 uM are considered active", "assay_type": "functional"}, "Cytochrome P450 2D6": {"target": "Cytochrome P450 2D6 (Homo sapiens, UniProt P10635)", "sequence (P10635 whole entry)": "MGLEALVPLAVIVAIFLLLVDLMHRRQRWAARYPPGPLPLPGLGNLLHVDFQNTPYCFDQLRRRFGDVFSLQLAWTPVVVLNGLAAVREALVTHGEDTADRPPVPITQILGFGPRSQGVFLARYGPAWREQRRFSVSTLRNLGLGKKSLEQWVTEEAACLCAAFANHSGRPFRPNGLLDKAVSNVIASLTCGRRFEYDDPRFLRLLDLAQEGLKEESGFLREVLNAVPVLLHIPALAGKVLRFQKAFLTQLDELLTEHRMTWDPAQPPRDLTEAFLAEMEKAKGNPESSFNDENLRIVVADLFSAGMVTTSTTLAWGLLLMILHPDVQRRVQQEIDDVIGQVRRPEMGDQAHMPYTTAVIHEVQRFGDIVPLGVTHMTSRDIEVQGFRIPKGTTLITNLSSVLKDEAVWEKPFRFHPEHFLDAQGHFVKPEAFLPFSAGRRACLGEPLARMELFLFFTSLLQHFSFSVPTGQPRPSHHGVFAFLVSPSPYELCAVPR"}, "Cytochrome P450 3A4": {"target": "Cytochrome P450 3A4 (Homo sapiens, UniProt P08684)", "sequence (P08684 whole entry)": "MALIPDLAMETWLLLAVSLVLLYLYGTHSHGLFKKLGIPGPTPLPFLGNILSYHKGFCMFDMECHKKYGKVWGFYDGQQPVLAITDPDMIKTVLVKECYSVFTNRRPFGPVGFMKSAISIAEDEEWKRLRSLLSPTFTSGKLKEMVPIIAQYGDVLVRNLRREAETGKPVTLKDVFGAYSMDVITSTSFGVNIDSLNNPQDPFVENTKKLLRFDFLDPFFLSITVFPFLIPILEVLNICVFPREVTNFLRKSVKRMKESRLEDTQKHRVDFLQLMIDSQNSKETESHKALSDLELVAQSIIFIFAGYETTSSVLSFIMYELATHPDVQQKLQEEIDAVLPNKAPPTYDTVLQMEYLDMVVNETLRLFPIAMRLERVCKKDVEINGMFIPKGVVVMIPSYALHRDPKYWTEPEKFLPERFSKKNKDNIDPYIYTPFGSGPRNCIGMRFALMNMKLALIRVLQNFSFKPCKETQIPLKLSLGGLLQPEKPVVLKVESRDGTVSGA"}, "Cytochrome P450 2C9": {"target": "Cytochrome P450 2C9 (Homo sapiens, UniProt P11712)", "sequence (P11712 whole entry)": "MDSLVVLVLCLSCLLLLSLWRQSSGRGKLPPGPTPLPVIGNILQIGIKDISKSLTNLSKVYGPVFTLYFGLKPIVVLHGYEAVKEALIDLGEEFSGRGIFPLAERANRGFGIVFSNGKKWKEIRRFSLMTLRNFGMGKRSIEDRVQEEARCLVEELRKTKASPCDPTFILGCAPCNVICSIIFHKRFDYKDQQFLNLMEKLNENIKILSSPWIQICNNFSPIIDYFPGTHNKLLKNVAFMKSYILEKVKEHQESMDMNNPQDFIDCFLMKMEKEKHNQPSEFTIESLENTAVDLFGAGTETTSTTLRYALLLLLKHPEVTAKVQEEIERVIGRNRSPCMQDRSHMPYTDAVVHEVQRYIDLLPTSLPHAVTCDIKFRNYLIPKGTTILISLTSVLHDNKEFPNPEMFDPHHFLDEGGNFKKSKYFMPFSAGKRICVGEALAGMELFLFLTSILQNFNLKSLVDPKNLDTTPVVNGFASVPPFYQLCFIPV"}, "HEK293 [3]": {"tested_on": "HEK293", "experiment": "NOD1 signaling inhibitors, primary screen, cell-based, luminescence, uHTS (AID 1578)", "assay_type": "functional", "details": "Homo sapiens"}, "[4]": {"tested_on": "Streptococcus sp. 'group A'", "experiment": "growth inhibition of control SK(-) GAS strain, dose response, counter-screen for streptokinase expression inhibitor project, luminescence, kanamycin, BacTiterGlo, confirmation (AID 1900)", "assay_type": "functional, organism-based"}, "HEK293 [5]": {"tested_on": "HEK293", "experiment": "cells", "assay_type": "functional, cell-based", "details": "Homo sapiens"}, "Streptokinase A": {"target": "T2, Streptokinase A (Streptococcus pyogenes serotype M1, UniProt P10520)", "T2 sequence (P10520 whole entry)": "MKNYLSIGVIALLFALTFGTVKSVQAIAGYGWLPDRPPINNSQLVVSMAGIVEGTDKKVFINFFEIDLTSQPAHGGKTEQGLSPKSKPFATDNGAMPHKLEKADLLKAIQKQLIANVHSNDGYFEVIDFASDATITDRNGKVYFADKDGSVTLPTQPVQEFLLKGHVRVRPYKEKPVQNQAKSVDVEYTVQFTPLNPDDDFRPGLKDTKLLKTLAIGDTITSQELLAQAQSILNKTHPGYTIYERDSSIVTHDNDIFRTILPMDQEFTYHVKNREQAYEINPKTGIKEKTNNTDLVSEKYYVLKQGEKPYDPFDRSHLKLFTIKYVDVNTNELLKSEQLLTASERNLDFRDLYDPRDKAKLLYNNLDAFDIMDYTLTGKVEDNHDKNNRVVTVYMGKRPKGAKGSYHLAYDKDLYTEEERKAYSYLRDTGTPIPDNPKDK", "experiment": "S. pyogenes streptokinase expression inhibitors, potency, dose response, plasminogen activation absorbance, OD405 (AID 1914);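 further: secreted streptokinase activity via plasminogen activation per viability signal from cell pellet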", "assay_type": "functional, Streptococcus pyogenes M1 GAS"}, "HEK293 [6]": {"tested_on": "HEK293", "experiment": "cells", "assay_type": "functional, cell-based", "details": "Homo sapiens", "remark": "listed apart in the source"}, "[7]": {"target": "Nucleotide-binding oligomerization domain-containing protein 2 (Homo sapiens, UniProt Q9HC29)", "sequence (Q9HC29 whole entry, the tested form may be a part)": "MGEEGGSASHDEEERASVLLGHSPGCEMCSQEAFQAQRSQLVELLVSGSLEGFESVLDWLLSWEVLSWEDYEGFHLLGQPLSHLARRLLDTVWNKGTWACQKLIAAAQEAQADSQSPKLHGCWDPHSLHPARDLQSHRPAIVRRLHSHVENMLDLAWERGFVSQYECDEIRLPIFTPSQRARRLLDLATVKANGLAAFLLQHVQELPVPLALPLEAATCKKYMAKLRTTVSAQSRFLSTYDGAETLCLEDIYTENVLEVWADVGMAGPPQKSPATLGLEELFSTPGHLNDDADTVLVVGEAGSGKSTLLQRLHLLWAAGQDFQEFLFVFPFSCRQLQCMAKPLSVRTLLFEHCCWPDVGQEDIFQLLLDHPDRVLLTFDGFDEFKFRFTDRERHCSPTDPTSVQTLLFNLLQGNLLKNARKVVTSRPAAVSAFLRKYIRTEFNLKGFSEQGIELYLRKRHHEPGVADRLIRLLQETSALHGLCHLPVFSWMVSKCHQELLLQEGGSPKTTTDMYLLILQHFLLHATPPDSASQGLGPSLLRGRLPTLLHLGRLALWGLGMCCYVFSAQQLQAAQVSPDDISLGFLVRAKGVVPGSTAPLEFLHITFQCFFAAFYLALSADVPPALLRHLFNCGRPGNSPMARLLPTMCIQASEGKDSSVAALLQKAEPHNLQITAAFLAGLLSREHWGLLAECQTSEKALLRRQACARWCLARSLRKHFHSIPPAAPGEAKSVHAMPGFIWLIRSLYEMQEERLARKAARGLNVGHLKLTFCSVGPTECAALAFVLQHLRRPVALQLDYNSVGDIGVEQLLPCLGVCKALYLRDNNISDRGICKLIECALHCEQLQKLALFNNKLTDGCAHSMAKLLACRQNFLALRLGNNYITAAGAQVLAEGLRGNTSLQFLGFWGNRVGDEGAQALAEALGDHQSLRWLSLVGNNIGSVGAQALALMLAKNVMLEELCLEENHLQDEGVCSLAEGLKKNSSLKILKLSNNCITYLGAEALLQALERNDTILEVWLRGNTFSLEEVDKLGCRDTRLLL", "experiment": "NOD2 signaling inhibitors, cell-based, luminescence, uHTS, HEK293 (AID 1566)", "assay_type": "functional"}, "HEK293 [8]": {"tested_on": "HEK293", "experiment": "NOD2 signaling inhibitors in MDP-stimulated cells, cell-based, uHTS, luminescence (AID 2001)", "assay_type": "functional", "details": "Homo sapiens"}, "HEK293 [9]": {"tested_on": "HEK293", "experiment": "cells", "assay_type": "functional, cell-based", "details": "Homo sapiens", "remark": "listed apart in the source"}, "Streptococcus": {"tested_on": "Streptococcus", "experiment": "Group A Streptococcus viability loss, dose response, counter-screen for streptokinase expression inhibitor project, luminescence, BacTiterGlo (AID 1915);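 further: potency for reduction of bacterial viability or growth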", "assay_type": "functional, organism-based"}, "[10]": {"experiment": "Luminescence Cell-Based Dose Retest to Confirm Inhibitors of Cancer Stem Cells. [Related pubchem assays (depositor defined):AID2717, AID2721]", "assay_type": "functional", "details": "Homo sapiens"}, "[11]": {"target": "Disintegrin and metalloproteinase domain-containing protein 17 (Homo sapiens, UniProt P78536)", "sequence (P78536 whole entry, the tested form may be a part)": "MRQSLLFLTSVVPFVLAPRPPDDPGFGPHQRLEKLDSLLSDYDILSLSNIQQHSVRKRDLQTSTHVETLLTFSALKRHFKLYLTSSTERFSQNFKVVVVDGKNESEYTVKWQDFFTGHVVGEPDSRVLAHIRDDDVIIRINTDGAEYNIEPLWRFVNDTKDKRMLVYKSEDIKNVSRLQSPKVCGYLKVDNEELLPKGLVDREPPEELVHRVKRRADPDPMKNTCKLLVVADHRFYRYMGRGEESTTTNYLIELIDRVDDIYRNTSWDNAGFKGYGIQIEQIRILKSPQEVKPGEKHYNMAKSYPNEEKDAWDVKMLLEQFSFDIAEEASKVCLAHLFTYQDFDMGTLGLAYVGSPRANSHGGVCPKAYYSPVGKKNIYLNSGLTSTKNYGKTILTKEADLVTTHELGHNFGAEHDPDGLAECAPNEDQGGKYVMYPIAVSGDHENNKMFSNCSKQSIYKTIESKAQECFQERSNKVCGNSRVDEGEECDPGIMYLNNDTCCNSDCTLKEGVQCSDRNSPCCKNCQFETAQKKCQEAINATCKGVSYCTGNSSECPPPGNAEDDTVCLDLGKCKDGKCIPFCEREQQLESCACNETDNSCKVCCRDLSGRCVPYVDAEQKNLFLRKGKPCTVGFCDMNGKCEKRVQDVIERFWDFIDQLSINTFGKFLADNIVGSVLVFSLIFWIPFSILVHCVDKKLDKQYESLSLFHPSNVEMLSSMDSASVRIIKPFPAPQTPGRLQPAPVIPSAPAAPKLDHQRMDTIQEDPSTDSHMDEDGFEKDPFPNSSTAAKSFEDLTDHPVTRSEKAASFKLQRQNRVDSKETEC", "experiment": "ADAM17 protease inhibitors, dose response, counter-screen for ADAM10 exosite inhibitor project, biochemical, quenched FRET substrate (AID 743253)"}}, "note": "Calls of active or inactive are those of the source."}
{"smiles": "O=C(CN1C(=O)CCC1=O)Nc1nc(-c2ccccn2)cs1", "values": [{"measurement": "IC50", "setting": "[1]", "value": "> 100 µM (inactive)"}, {"measurement": "IC50", "setting": "[2]", "value": "> 100 µM (not active)"}, {"measurement": "IC50", "setting": "Nonstructural protein 1", "value": "4.83 µM (active)"}, {"measurement": "IC50", "setting": "H9c2", "value": "33.4 µM (inactive)"}]}
{"smiles": "O=C(COC(=O)C(Cc1ccccc1)NC(=O)c1ccco1)NC1CC1", "note": "(centres undefined)", "values": [{"measurement": "IC50", "setting": "[1]", "value": "> 100 µM (inactive)"}, {"measurement": "IC50", "setting": "[2]", "value": "> 100 µM (not active)"}]}
{"smiles": "Cc1ccc(NC(=O)NNC(=O)C2CC(c3cccnc3)=NO2)cc1", "note": "(centres undefined)", "values": [{"measurement": "AC50", "setting": "Cytochrome P450 2C19", "value": "inconclusive"}, {"measurement": "AC50", "setting": "Cytochrome P450 2D6", "value": "inconclusive"}]}
{"smiles": "O=C(c1cccc(F)c1)N1CCC2(CCN(Cc3nccs3)CC2)CC1", "values": [{"measurement": "AC50", "setting": "Cytochrome P450 3A4", "value": "inconclusive"}]}
{"smiles": "CSc1nc2nc3c(c(O)n2n1)CN(Cc1ccccc1)CC3", "values": [{"measurement": "AC50", "setting": "Cytochrome P450 2C9", "value": "15.8 µM (inconclusive)"}, {"measurement": "AC50", "setting": "Cytochrome P450 3A4", "value": "inconclusive"}]}
{"smiles": "CCOC(=O)N1CCC(=NNC(=O)c2ccccc2F)CC1", "values": [{"measurement": "IC50", "setting": "[1]", "value": "> 100 µM (inactive)"}, {"measurement": "IC50", "setting": "[2]", "value": "> 100 µM (not active)"}]}
{"smiles": "COc1ccc(-c2c[nH]nc2-c2ccc(OCc3ccccc3)cc2O)cc1", "values": [{"measurement": "EC50", "setting": "HEK293 [3]", "value": "12.2 µM (active)"}, {"measurement": "EC50", "setting": "[4]", "value": "2.68 µM (active)"}, {"measurement": "IC50", "setting": "HEK293 [5]", "value": "1.84 µM (active)"}, {"measurement": "EC50", "setting": "Streptokinase A", "value": "> 150 µM (inconclusive)"}, {"measurement": "IC50", "setting": "HEK293 [6]", "value": "> 20 µM (inactive)"}, {"measurement": "EC50", "setting": "[7]", "value": "2.22 µM (active)"}, {"measurement": "IC50", "setting": "HEK293 [8]", "value": "3.21 µM (active)"}, {"measurement": "IC50", "setting": "HEK293 [9]", "value": "> 20 µM (inactive)"}, {"measurement": "EC50", "setting": "Streptococcus", "value": "17.7 µM (active)"}, {"measurement": "AC50", "setting": "[10]", "value": "6.84 µM (active)"}, {"measurement": "IC50", "setting": "[11]", "value": "> 69.5 µM (inactive)"}]}
